Measurements: patent publication US20230203059A1, “MACROCYCLIC JAK INHIBITOR AND USES THEREOF” (Biopolar Hongye (Guangdong) Pharmaceutical Co. Ltd., priority 2020, published 2023)
Like-named read-outs stand apart in the source and are kept apart here.

Legend:
Assay type in all cases: biochemical
JAK2 = JAK2 (Homo sapiens, UniProt O60674); assay: JAK kinase activity, homogeneous time-resolved fluorescence (JAK2 reaction system); conditions: ATP 2 μM, JAK2 protein 0.01 ng/μL
Method in brief: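 IC50 derived by Hill-equation fit of the 665/615 nm time-resolved fluorescence ratio after EDTA-containing detection mix with anti-phosphosubstrate antibody. Preceding 1 h reaction contained 2 μM ATP, 0.01 ng/μL JAK2, substrate, 50 mM Hepes pH 7.0, 5 mM MgCl2, 1 mM DTT.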

JAK3 = target: T1, JAK3 (Homo sapiens, UniProt P52333); assay: JAK kinase activity, homogeneous time-resolved fluorescence (JAK3 reaction system)
T1 sequence (P52333 1-1124): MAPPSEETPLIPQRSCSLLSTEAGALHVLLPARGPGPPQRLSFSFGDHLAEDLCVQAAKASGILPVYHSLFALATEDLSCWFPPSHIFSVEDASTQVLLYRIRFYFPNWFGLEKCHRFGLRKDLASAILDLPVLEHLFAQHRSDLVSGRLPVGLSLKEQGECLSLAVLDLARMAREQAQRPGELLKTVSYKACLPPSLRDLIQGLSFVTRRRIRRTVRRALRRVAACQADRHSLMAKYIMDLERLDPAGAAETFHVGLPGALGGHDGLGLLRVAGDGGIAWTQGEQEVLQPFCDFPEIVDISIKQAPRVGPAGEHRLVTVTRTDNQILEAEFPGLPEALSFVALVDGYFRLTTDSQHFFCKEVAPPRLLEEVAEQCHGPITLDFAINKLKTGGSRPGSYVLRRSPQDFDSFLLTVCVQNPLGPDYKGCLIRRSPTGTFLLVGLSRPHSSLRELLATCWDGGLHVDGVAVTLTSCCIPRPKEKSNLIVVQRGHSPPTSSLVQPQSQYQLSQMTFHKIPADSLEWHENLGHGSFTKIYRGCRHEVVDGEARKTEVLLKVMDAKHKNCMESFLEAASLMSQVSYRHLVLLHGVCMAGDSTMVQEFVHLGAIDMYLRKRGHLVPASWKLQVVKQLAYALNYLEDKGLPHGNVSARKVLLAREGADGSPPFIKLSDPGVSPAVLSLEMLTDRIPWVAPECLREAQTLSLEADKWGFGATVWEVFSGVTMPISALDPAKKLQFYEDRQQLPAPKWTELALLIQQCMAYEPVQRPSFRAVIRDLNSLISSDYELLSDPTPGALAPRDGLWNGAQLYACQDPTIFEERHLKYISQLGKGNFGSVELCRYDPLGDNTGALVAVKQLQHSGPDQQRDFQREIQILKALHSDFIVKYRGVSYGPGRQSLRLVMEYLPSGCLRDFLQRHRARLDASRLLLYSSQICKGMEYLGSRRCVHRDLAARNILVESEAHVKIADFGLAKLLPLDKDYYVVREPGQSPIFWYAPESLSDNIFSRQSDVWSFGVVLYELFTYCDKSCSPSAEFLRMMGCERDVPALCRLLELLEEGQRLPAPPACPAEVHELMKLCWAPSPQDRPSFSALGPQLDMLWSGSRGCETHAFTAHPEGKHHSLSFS

JAK1 = JAK1 (Homo sapiens, UniProt P23458); assay: JAK kinase activity, homogeneous time-resolved fluorescence (JAK1 reaction system); conditions: ATP 2 μM, JAK1 protein 0.2 ng/μL; read-out: JAK 1 activity
Method in brief: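 Kinase activity read as the 665 nm/615 nm time-resolved fluorescence ratio (320 nm excitation) after EDTA-containing antibody and XL-615 addition. Reaction ran 1 h at pH 7.0 (Hepes, MgCl2, DTT) with 0.2 ng/μL JAK1 and ATP at 2 μM. IC50 derived by Hill-slope fit.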

TYK2 = TYK2 (Homo sapiens, UniProt P29597); assay: JAK kinase activity, homogeneous time-resolved fluorescence (TYK2 reaction system); conditions: ATP 2 μM, TYK2 protein 0.2 ng/μL; read-out: TYK 2 activity
Method in brief: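 Activity read as the 665 nm/615 nm ratio after adding EDTA-containing detection mix with anti-phospho-substrate antibody and XL-615. Beforehand, 0.2 ng/μL TYK2, 2 μM ATP, substrate and compound reacted 1 h in pH 7.0 Hepes buffer with MgCl2 and DTT. IC50 fitted with Hill-slope equation.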

[1] = ATP 2 μM, JAK3 protein 0.04 ng/μL, read-out: JAK 3 activity

JAK2, sequence (O60674 whole entry): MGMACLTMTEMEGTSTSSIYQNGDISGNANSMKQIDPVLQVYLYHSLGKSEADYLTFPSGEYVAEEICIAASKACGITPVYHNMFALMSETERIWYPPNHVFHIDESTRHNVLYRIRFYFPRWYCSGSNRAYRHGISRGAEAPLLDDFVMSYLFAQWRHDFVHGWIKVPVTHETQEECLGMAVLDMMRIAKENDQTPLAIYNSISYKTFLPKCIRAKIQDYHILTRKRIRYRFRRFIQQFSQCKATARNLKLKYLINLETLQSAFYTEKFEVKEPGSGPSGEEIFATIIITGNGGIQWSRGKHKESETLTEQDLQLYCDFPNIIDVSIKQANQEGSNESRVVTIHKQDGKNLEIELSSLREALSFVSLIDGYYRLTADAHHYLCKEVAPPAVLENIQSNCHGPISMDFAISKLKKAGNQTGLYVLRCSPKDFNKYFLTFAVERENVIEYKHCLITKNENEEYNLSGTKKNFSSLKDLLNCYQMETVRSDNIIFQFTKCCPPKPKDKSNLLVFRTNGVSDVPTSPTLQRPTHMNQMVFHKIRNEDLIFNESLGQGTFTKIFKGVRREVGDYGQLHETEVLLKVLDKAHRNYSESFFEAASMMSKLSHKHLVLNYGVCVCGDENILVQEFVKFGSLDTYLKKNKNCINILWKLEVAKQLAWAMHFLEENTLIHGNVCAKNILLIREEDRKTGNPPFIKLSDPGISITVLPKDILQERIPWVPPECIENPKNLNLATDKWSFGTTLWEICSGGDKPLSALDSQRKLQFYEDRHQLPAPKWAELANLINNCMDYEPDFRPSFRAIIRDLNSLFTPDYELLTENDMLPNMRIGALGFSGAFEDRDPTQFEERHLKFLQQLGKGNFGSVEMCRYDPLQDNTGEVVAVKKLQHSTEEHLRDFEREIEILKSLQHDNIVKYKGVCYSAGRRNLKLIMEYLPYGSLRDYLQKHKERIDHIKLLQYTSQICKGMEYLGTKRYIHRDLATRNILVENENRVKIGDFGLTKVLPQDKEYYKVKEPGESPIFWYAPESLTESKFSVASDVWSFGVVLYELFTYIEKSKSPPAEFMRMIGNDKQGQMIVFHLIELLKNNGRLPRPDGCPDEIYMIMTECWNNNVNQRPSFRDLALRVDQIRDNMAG
TYK2, sequence (P29597 whole entry): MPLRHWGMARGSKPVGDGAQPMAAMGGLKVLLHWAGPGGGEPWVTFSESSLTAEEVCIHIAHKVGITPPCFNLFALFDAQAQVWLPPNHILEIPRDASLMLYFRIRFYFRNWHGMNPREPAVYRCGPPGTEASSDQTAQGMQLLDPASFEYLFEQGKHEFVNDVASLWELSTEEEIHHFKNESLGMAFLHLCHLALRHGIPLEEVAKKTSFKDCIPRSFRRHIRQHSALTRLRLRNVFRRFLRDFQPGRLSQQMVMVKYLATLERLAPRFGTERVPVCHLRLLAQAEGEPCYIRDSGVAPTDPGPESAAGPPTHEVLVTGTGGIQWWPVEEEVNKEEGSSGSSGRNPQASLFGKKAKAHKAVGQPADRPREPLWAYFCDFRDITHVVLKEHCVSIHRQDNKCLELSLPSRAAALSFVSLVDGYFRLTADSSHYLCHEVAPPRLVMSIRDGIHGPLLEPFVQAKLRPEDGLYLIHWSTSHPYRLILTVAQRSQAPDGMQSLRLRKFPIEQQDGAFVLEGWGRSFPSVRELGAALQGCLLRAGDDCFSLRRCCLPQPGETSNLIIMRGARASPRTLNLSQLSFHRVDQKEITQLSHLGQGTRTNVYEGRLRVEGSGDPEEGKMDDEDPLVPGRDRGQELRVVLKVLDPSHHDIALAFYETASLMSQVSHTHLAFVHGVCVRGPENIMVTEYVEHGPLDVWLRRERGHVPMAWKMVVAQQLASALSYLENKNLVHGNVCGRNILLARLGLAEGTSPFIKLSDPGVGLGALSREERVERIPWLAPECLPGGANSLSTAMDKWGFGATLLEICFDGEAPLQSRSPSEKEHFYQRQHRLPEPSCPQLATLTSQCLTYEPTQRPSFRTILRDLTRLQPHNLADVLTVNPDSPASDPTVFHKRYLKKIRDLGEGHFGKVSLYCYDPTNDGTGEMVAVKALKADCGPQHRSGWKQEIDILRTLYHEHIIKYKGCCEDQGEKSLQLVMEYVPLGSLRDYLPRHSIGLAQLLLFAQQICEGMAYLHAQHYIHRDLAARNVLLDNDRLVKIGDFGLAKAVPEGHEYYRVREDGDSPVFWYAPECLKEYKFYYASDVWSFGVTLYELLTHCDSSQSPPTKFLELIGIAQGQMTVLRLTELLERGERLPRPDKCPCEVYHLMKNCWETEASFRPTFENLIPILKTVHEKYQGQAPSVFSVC
JAK1, sequence (P23458 whole entry): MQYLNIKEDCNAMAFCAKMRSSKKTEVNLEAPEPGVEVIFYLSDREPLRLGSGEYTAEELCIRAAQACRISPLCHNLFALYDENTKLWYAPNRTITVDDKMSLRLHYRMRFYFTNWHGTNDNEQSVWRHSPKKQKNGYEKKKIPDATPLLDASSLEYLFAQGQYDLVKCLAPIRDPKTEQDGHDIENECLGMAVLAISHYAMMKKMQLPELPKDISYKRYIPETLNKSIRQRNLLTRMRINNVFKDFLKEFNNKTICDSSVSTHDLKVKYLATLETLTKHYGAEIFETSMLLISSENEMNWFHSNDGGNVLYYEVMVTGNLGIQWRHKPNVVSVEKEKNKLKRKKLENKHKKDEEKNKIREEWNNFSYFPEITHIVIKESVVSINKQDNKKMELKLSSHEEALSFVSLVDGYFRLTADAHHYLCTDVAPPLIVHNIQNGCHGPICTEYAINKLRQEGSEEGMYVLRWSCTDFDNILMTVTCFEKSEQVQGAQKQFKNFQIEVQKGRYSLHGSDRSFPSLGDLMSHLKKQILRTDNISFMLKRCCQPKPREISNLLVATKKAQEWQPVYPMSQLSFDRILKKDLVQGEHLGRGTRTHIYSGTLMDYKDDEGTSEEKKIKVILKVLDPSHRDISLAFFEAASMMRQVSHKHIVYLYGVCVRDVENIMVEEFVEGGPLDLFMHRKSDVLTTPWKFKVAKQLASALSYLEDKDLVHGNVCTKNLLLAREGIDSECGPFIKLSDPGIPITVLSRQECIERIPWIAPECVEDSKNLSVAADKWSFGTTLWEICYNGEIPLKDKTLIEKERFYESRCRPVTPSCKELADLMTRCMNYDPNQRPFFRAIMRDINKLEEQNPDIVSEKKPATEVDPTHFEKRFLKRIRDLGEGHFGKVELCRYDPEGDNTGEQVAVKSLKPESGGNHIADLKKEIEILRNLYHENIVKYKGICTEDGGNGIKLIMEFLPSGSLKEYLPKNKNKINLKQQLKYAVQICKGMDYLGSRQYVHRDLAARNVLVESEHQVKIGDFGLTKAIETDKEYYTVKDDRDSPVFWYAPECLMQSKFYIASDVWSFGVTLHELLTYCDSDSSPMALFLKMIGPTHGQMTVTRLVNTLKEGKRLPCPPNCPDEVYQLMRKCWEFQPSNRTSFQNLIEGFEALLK

Q: Which results are given for `CC1CCNC(=O)c2ccc(c(N)c2)-c2ccnc(n2)Nc2ccc(OCC3CCCOC3)c(c2)COC1` (stereo not drawn) [Example 140, 1^2-amino-8-methyl-4^4-((tetrahydro-2H-pyran-3-yl)methoxy)-6-oxa-3,11-diaza-2(4,2)-pyrimidina-1(1,4),4(1,3)-dibenzenacyclododecaphan-12-one]?
A: IC50 (JAK2): 0.101 to 1 µM; IC50 (JAK3; [1]): < 0.01 µM; IC50 (JAK1): 1 to 10 µM; IC50 (TYK2): 1 to 10 µM

Q: Which results are given for `Cc1cc2ccc1-c1nc(ncc1C)Nc1cccc(c1)COCCCCNC2=O` [Example 36, 1^2,2^5-dimethyl-6-oxa-3,11-diaza-2(4,2)-pyrimidina-1(1,4),4(1,3)-diben-zenacyclododecaphan-12-one]?
A: IC50 (JAK2): > 10 µM; IC50 (JAK3; [1]): 1 to 10 µM; IC50 (JAK1): > 10 µM; IC50 (TYK2): > 10 µM

Q: How did the IC50 (JAK2) turn out when `Nc1cc2ccc1-c1ccnc(n1)Nc1ccc(OCC3CCC(F)(F)C3)c(c1)COCCCCNC2=O` (stereo not drawn) [Example 121, 1^2-amino-4^4-((3,3-difluorocyclo-pentyl)methoxy)-6-oxa-3,11-diaza-2(4,2)-pyrimidina-1(1,4),4(1,3)-di-benzenacyclododecaphan-12-one] was run?
A: 0.101 to 1 µM

Q: And the IC50 (JAK3; [1])?
A: < 0.01 µM

Q: And the IC50 (JAK1)?
A: 1 to 10 µM

Q: What about the IC50 (TYK2) of the same molecule?
A: 1 to 10 µM

Q: How did the IC50 (JAK2) turn out when `O=C1NCCCCOCc2cc(ccc2OC2CCCC2)Nc2nccc(n2)-c2ccc1cc2F` [Example 92, 4^4-cyclopentoxy-1^2-fluoro-6-oxa-3,11-diaza-2(4,2)-pyrimidina-1(1,4),4(1,3)-dibenzenacyclododecaphan-12-one] was run?
A: 0.101 to 1 µM

Q: What about the IC50 (JAK3; [1]) of the same molecule?
A: 0.011 to 0.1 µM

Q: And the IC50 (JAK1)?
A: 1 to 10 µM

Q: And the IC50 (TYK2)?
A: 1 to 10 µM

Q: How did the IC50 (JAK2) turn out when `O=C1NCCCCOCc2cc(ccc2N2CCSCC2)Nc2nccc(n2)-c2ccc1cc2` [Example 6, 4^4-thiomorpholin-6-oxa-3,11-diaza-2(4,2)-pyrimidina-1(1,4),4(1,3)-dibenze-nacyclododecaphan-12-one] was run?
A: 0.011 to 0.1 µM

Q: What about the IC50 (JAK3) of the same molecule?
A: 0.011 to 0.1 µM

Q: What about the IC50 (JAK1) of the same molecule?
A: 0.101 to 1 µM

Q: And the IC50 (TYK2)?
A: 0.101 to 1 µM

Q: Which IC50 (JAK2) does the source give for `CC1(C)CCNC(=O)c2ccc(c(N)c2)-c2ccnc(n2)Nc2ccc(OC3CC3)c(c2)COC1` [Example 176, 1^2-amino-4^4-cyclopropoxy-8,8-di-methyl-6-oxa-3,11-diaza-2(4,2)-py-rimidina-1(1,4),4(1,3)-dibenzena-cyclododecaphan-12-one] here?
A: > 10 µM

Q: What about the IC50 (JAK3; [1]) of the same molecule?
A: 1 to 10 µM

Q: What about the IC50 (JAK1) of the same molecule?
A: > 10 µM

Q: And the IC50 (TYK2)?
A: > 10 µM

Q: How did the IC50 (JAK2) turn out when `Nc1cc2ccc1-c1ccnc(n1)Nc1ccc(Oc3ccc(F)cc3)c(c1)COCCCCNC2=O` [Example 107, 1^2-amino-4^4-(4-fluorophenoxy)-6-oxa-3,11-diaza-2(4,2)-pyrimidina-1(1,4),4(1,3)-dibenzenacyclo-dodecaphan-12-one] was run?
A: 0.101 to 1 µM

Q: And the IC50 (JAK3; [1])?
A: 0.011 to 0.1 µM

Q: And the IC50 (JAK1)?
A: 1 to 10 µM

Q: What about the IC50 (TYK2) of the same molecule?
A: > 10 µM

Q: What does the source list for `O=C1NCCCCOCc2cc(ccc2Oc2ccc(F)cc2)Nc2nccc(n2)-c2ccc1cc2[N+](=O)[O-]` [Example 106, 4^4-(4-fluorophenoxy)-1^2-nitro-6-o-xa-3,11-diaza-2(4,2)-pyrimidina-1(1,4),4(1,3)-dibenzenacyclo-dodecaphan-12-one]?
A: IC50 (JAK2): 1 to 10 µM; IC50 (JAK3; [1]): 0.101 to 1 µM; IC50 (JAK1): > 10 µM; IC50 (TYK2): > 10 µM

Q: What does the source list for `CN1CCN(c2ccc3cc2COCCCCNC(=O)c2ccc(c([N+](=O)[O-])c2)-c2ccnc(n2)N3)CC1` [Example 59, 1^2-nitro-4^4-(4-methylpiperazin-1-)-6-oxa-3,11-diaza-2(4,2)-pyrimidina-1(1,4),4(1,3)-dibenzenacyclododeca-phan-12-one]?
A: IC50 (JAK2): 1 to 10 µM; IC50 (JAK3; [1]): 0.101 to 1 µM; IC50 (JAK1): 1 to 10 µM; IC50 (TYK2): > 10 µM

Q: `Nc1cc2ccc1-c1ccnc(n1)Nc1ccc(Oc3cnc4[nH]ccc4c3)c(c1)COCCCCNC2=O` [Example 161, 4^4-((1H-pyrrolo[2,3-b]pyridin-5-yl)oxy)-1^2-amino-6-oxa-3,11-diaza-2(4,2)-pyrimidina-1(1,4),4(1,3)-di-benzenacyclododecaphan-12-one] was tested. Which IC50 (JAK2) did it give?
A: 1 to 10 µM

Q: What about the IC50 (JAK3; [1]) of the same molecule?
A: 1 to 10 µM

Q: What about the IC50 (JAK1) of the same molecule?
A: 1 to 10 µM

Q: And the IC50 (TYK2)?
A: > 10 µM

Q: With `COc1cc(F)cc(F)c1COc1ccc2cc1COCC[C@H](C)CNC(=O)c1ccc(c(N)c1)-c1ccnc(n1)N2` [Example 191, (S)-1^2-amino-4^4-((2,4-difluoro-6-methoxybenzyl)oxy)-9-methyl-6-x-xa-3,11-diaza-2(4,2)-pyrimidina-1(1,4),4(1,3)-dibenzenacyclo-dodecaphan-12-one] as the molecule, how does the IC50 (JAK2) read?
A: 1 to 10 µM

Q: And the IC50 (JAK3; [1])?
A: 0.101 to 1 µM

Q: What about the IC50 (JAK1) of the same molecule?
A: 1 to 10 µM

Q: What about the IC50 (TYK2) of the same molecule?
A: 1 to 10 µM

Q: With `C[C@H]1CCOCc2cc(ccc2OC2CC2)Nc2nccc(n2)-c2ccc(cc2N)C(=O)NC1` [Example 180, (S)-1^2-amino-4^4-cyclopropoxy-9-methyl-6-oxa-3,11-diaza-2(4,2)-py-rimidina-1(1,4),4(1,3)-dibenzena-cyclododecaphan-12-one] as the molecule, how does the IC50 (JAK2) read?
A: 0.101 to 1 µM

Q: And the IC50 (JAK3; [1])?
A: 0.011 to 0.1 µM

Q: What about the IC50 (JAK1) of the same molecule?
A: 1 to 10 µM

Q: And the IC50 (TYK2)?
A: 1 to 10 µM

Q: Which IC50 (JAK2) does the source give for `Nc1cc2ccc1-c1ccnc(n1)Nc1ccc(Oc3ccccc3)c(c1)COCCCCNC2=O` [Example 96, 1^2-amino-4^4-phenoxy-6-oxa-3,11-diaza-2(4,2)-pyrimidin-1(1,4),4(1,3)-dibenzenacyclododecaphan-12-one] here?
A: 1 to 10 µM

Q: And the IC50 (JAK3; [1])?
A: 0.011 to 0.1 µM

Q: And the IC50 (JAK1)?
A: 1 to 10 µM

Q: What about the IC50 (TYK2) of the same molecule?
A: > 10 µM

Q: For `CC1CCOCc2cc(ccc2OC2CCCOC2)Nc2nccc(n2)-c2ccc(cc2[N+](=O)[O-])C(=O)NC1` (stereo not drawn) [Example 162, 9-methyl-1^2-nitro-4^4-((tetrahydro-2H-pyran-3-yl)oxy)-6-oxa-3,11-di-aza-2(4,2)-pyrimidina-1(1,4),4(1,3)-dibenzenacyclododecaphan-12-one], which IC50 (JAK2) is on record?
A: 0.101 to 1 µM

Q: What about the IC50 (JAK3; [1]) of the same molecule?
A: 0.101 to 1 µM

Q: And the IC50 (JAK1)?
A: 1 to 10 µM

Q: What about the IC50 (TYK2) of the same molecule?
A: 1 to 10 µM

Q: For `CC1CCOCc2cc(ccc2OC2CCCOC2)Nc2nccc(n2)-c2ccc(cc2N)C(=O)NC1` (stereo not drawn) [Example 165, 1^2-amino-9-methyl-4^4-((tetrahydro-2H-pyran-3-yl)oxy)-6-oxa-3,11-di-aza-2(4,2)-pyrimidina-1(1,4),4(1,3)-dibenzenacyclododecaphan-12-one], which IC50 (JAK2) is on record?
A: 0.011 to 0.1 µM

Q: What about the IC50 (JAK3; [1]) of the same molecule?
A: < 0.01 µM

Q: And the IC50 (JAK1)?
A: 0.101 to 1 µM

Q: And the IC50 (TYK2)?
A: 0.101 to 1 µM

Q: With `Nc1cc2ccc1-c1ccnc(n1)Nc1ccc(OCC3CCc4ccccc43)c(c1)COCCCCNC2=O` (stereo not drawn) [Example 134, 1^2-amino-4^4-((2,3-dihydro-1H-inden-1-yl)methoxy)-6-oxa-3,11-diaza-2(4,2)-pyrimidina-1(1,4),4(1,3)-dibenzenacyclododecaphan-12-one] as the molecule, how does the IC50 (JAK2) read?
A: 1 to 10 µM

Q: What about the IC50 (JAK3; [1]) of the same molecule?
A: 0.011 to 0.1 µM

Q: And the IC50 (JAK1)?
A: 1 to 10 µM

Q: And the IC50 (TYK2)?
A: 1 to 10 µM

Q: How did the IC50 (JAK2) turn out when `O=C1NCCCCOCc2cc(ccc2OCC2CCc3ccccc32)Nc2nccc(n2)-c2ccc1cc2[N+](=O)[O-]` (stereo not drawn) [Example 133, 4^4-((2,3-dihydro-1H-inden-1-yl)methoxy)-1^2-nitro-6-oxa-3,11-diaza-2(4,2)-pyrimidina-1(1,4),4(1,3)-dibenzenacyclododecaphan-12-one] was run?
A: > 10 µM

Q: What about the IC50 (JAK3; [1]) of the same molecule?
A: 1 to 10 µM

Q: What about the IC50 (JAK1) of the same molecule?
A: > 10 µM

Q: And the IC50 (TYK2)?
A: > 10 µM

Q: What does the source list for `Nc1cc2ccc1-c1ccnc(n1)Nc1ccc(N3CCOCC3)c(c1)COCCCCCCNC2=O` [Example 57, 1^2-amino-4^4-morpholin-6-oxa-3,13-diaza-2(4,2)-pyrimidina-1(1,4),4(1,3)-dibenzenacyclotetradecaphan-14-one]?
A: IC50 (JAK2): 0.101 to 1 µM; IC50 (JAK3; [1]): 0.011 to 0.1 µM; IC50 (JAK1): 1 to 10 µM; IC50 (TYK2): 0.101 to 1 µM
